The values that follow come from ChEMBL document CHEMBL2321855, “Synthesis, molecular modeling and evaluation of novel N'-2-(4-benzylpiperidin-/piperazin-1-yl)acylhydrazone derivatives as dual inhibitors for cholinesterases and Aβ aggregation” (Bioorg Med Chem Lett, 2013).

Experiment [1] has as its target Amyloid-beta precursor protein (Homo sapiens) (UniProt P05067). The experiment can be described thus: Inhibition of amyloid beta (1 to 40_1 to 42) (unknown origin) aggregation at 100 uM by thioflavin-T fluorescence method relative to rifampicin.
Experiment [2] shares this target. The experiment in a line: Inhibition of amyloid beta (1 to 42) (unknown origin) aggregation at 100 uM by thioflavin-T fluorescence method relative to rifampicin.
The target is the same in experiment [3]. The experiment can be described thus: Inhibition of amyloid beta (1 to 40) (unknown origin) aggregation at 100 uM by thioflavin-T fluorescence method relative to rifampicin.
Experiment [4] deals with T1, Cholinesterase (Equus caballus, UniProt P81908). The experiment in a line: Mixed type inhibition of equine BuChE by Lineweaver-Burk plot analysis.
Experiment [5] concerns the target T1, Cholinesterase. The experiment can be described thus: Inhibition of equine BuChE measured for 1 min by Ellman's method. In general terms: DTNB colorimetry detects thiols as they appear.
The next experiment concerns the target Acetylcholinesterase (Homo sapiens, UniProt P22303). The experiment in a line: Inhibition of human recombinant AChE measured for 1 min by Ellman's method.
Experiment [6] concerns the target T1, Cholinesterase. The experiment can be described thus: Competitive inhibition of equine BuChE by Lineweaver-Burk plot analysis.

Chain of Acetylcholinesterase (P22303 whole entry): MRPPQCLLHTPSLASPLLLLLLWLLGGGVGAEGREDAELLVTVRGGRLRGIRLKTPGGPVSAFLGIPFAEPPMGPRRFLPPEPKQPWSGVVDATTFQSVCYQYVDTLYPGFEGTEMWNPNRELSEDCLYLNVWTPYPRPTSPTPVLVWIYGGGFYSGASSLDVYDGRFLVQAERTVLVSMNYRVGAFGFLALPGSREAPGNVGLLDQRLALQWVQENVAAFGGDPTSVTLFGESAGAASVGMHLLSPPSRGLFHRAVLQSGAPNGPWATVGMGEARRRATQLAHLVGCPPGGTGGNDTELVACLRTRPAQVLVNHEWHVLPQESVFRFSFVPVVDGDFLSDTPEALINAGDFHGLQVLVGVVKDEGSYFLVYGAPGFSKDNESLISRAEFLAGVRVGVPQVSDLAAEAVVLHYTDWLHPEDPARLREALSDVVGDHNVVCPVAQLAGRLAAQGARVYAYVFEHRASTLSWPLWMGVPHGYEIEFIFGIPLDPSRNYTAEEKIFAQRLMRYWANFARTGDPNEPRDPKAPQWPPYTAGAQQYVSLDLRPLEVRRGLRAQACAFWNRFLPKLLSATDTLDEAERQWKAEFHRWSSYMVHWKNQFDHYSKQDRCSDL
Chain of Amyloid-beta precursor protein (Homo sapiens) (P05067 whole entry): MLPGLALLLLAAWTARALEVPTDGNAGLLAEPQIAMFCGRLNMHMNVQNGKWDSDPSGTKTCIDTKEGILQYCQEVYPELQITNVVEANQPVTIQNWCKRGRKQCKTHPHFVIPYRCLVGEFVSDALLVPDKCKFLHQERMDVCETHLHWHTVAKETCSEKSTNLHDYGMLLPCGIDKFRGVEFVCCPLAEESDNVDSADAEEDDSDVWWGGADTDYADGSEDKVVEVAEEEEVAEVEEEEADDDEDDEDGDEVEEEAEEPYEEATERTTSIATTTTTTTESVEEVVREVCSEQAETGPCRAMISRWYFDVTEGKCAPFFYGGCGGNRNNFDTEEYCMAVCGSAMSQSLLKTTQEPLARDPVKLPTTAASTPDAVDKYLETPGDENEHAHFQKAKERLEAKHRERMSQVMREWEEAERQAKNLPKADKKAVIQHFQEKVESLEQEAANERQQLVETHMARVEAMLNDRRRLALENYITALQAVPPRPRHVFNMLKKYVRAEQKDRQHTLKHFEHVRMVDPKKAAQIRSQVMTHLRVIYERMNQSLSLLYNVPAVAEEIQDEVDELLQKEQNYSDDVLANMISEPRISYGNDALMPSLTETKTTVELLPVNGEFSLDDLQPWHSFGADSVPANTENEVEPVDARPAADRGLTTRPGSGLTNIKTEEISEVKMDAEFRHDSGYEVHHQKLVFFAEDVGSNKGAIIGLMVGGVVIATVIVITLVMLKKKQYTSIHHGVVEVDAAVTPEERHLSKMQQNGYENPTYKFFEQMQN
T1 sequence (P81908 whole entry): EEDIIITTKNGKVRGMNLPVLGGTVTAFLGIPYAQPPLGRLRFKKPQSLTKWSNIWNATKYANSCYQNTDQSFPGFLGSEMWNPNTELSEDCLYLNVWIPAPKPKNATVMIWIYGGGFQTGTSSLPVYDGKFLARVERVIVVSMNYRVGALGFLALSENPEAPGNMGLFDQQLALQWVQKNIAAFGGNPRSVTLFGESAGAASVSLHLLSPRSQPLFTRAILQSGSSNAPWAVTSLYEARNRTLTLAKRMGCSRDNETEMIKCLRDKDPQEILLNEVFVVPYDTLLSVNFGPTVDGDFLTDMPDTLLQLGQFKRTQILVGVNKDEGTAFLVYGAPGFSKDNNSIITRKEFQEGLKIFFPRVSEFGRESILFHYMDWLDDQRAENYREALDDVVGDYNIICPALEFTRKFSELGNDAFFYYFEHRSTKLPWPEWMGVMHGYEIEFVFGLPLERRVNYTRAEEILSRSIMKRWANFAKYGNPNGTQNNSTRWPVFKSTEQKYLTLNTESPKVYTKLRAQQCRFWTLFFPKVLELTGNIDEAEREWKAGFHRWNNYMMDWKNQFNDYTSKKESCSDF

What is called inhibition is the change of the read-out against control, counted positive when it falls. The low end stands for a response near the control, the high end for a response far below the control. What is called Ki is a dissociation constant, usually derived from enzyme kinetics or from competition with a known ligand. A lower Ki goes with tighter binding. Broadly, the IC50 is the concentration at which inhibition is half-maximal. For the molecule `COc1ccc(/C=N/NC(=O)CN2CCC(Cc3ccccc3)CC2)cc1`, the inhibition in experiment [1], in experiment [2] and in experiment [3] was 69% throughout. For the same molecule, the Ki on Cholinesterase [4] worked out at 30.5 µM. In addition, the IC50 against Cholinesterase [5] was 48.8 µM.

For `COc1ccc(/C=N/NC(=O)CN2CCN(Cc3ccccc3)CC2)cc1OC`, the inhibition in experiment [1], in experiment [2] and in experiment [3] was 69% each time. For the same molecule, the IC50 on Acetylcholinesterase came out at 81.1 µM; at Cholinesterase [5] it was 71.7 µM.

In the case of `CCOc1ccc(/C=N/NC(=O)CN2CCN(Cc3ccccc3)CC2)cc1`, the inhibition in experiment [1], in experiment [2] and in experiment [3] was 69% in each case. Besides, the IC50 on Acetylcholinesterase is 81.4 µM; against Cholinesterase [5], 98.8 µM.

In the case of `CCOc1ccc(/C=N/NC(=O)CN2CCC(Cc3ccccc3)CC2)cc1`, the inhibition in experiment [1], in experiment [2] and in experiment [3] was 69% in each case. In addition, on Cholinesterase [6], the inhibitory constant (Ki) was 31.5 µM. Moreover, the IC50 against Cholinesterase [5] came to 67.3 µM.

As for `COc1ccc(/C=N/NC(=O)CN2CCN(Cc3ccccc3)CC2)cc1`, the inhibition in experiment [1], in experiment [2] and in experiment [3] was 69% in each case. Moreover, the IC50 on Acetylcholinesterase was 88.5 µM; against Cholinesterase [5] it was 88.3 µM.

For `COc1ccc(/C=N/NC(=O)CN2CCC(Cc3ccccc3)CC2)cc1OC`, the inhibition in experiment [1], in experiment [2] and in experiment [3] was 69% each time. Further, the IC50 on Acetylcholinesterase amounted to 62.8 µM; against Cholinesterase [5], 55.1 µM.
